Reference: ChEMBL document CHEMBL1125990, “Synthesis of novel 1-nitrogen replaced carbocyclic thymidine analogs as potential anti aids agents” (Bioorg Med Chem Lett, 1991)
The source made the active and inactive calls. The rule behind the calls is not given here.

System: Human immunodeficiency virus 1
Test: Tested for activity against HIV in cell culture at concentration of 100 ug/mL; NA denotes no activity
Format: functional, organism-based

Row | SMILES | Activity
1 | Cc1cn(N2CC(F)C(CO)C2)c(=O)[nH]c1=O (stereo not drawn) | inactive
2 | Cc1cn(N2CC(CO)C(N=[N+]=[N-])C2)c(=O)[nH]c1=O (stereo not drawn) | inactive
3 | Cc1cn(N2CC(O)C(CO)C2)c(=O)[nH]c1=O (stereo not drawn) | inactive
